Source: patent publication US6362166B1, “Antipicornaviral compounds and methods for their use and preparation” (Agouron Pharmaceuticals, Inc., priority 1996, dated 2002)
Like-named read-outs stand apart in the source and are kept apart here.

Experiments:
[1] = biological target: T1, Recombinant Rhinovirus 3C protease (RVP) serotype-14 (Human rhinovirus 14, UniProt P03303); test: Inhibition of Rhinovirus Protease (fluorescence resonance energy transfer assay), serotype 14; assay type: biochemical, human rhinovirus (HRV); conditions: for kinact/KI: pH 7.6, read-out: kobs/I; for kobs/I: progress curves in enzyme start experiments
T1 construct: Recombinant Rhinovirus 3C proteases from serotypes 14, 16, 2 or 89; made in house
T1 sequence (P03303 1538-1719): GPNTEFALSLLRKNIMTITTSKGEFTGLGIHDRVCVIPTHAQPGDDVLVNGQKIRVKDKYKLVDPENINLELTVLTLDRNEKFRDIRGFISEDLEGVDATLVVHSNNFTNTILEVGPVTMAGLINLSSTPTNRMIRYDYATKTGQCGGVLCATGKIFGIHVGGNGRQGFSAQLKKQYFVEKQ

[2] = biological target: T2, Recombinant Rhinovirus 3C protease (RVP) serotype 16 (Human rhinovirus 16, UniProt Q82122); test: Inhibition of Rhinovirus Protease (fluorescence resonance energy transfer assay), serotype 16; assay type: biochemical, human rhinovirus (HRV); conditions: for kobs/I / kinact/KI: progress curves in enzyme start experiments; for kinact/KI: pH 7.6, read-out: kobs/I
T2 construct: Recombinant Rhinovirus 3C proteases from serotypes 14, 16, 2 or 89; made in house
T2 sequence (Q82122 1511-1693): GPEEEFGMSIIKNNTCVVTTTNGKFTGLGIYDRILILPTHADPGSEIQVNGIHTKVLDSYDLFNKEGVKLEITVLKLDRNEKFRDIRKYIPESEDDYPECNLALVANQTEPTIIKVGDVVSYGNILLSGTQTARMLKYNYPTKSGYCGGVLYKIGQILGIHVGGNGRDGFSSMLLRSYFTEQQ
Experimental: (§1) Stock solution (50 mM, in DMSO) of various compounds were prepared; dilutions were in the same solvent. Recombinant Rhinovirus 3C proteases from serotypes 14, 16, 2 or 89 were prepared by the following standard chromatographic procedures: (1) ion exchange using Q Sepharose Fast Flow from Pharmacia; (2) affinity chromatography using Affi-Gel Blue from Biorad; and (3) sizing using Sephadex G-100 from Pharmacia. Assays contained 2% DMSO, 50 mM tris pH 7.6, 1 mM EDTA, a compound at the indicated concentrations, approximately 1 μM substrate, and 50-100 nM protease. […] The kobs/I values were obtained from reactions initiated by addition of enzyme rather than substrate. RVP activity is measured in the fluorescence resonance energy transfer assay. The substrate was (N-terminal) DABCYL-([…]Gyl)-EDANS. In the uncleaved peptide, the EDANS fluorescence was quenched by the proximal DABCYL moeity. When the peptide was cleaved, the quenching was relieved, and activity was measured as an increase in fluorescence signal.
(§2) In the above table, all data is RVP serotype-14 unless otherwise noted in parentheses. All strains of human rhinovirus (HRV) were purchased from American Type Culture Collection (ATCC), except for serotype 14, which was produced from the infectious cDNA clone constructed and supplied to us by Dr. Roland Rueckert at the Institute for Molecular Virology, University of Wisconsin, Madison, Wisc. […] The data in the column designated kobs/I was measured from progress curves in enzyme start experiments.

HRV-14 = test: Antirhinoviral HI-HeLa Cell Culture Assay (Cell Protection Assay, XTT dye reduction); assay type: cell-based, human rhinovirus (HRV) serotype-14
In short: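 Protection measured via XTT dye reduction (450/650 nm) two days after compound treatment of HI-HeLa cells, mock-infected or infected with cDNA-derived HRV-14 at m.o.i. 0.13. CC50 divided by EC50 gives the therapeutic index.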

[3] = Cytotoxicity in mock-infected HI-HeLa cells (antirhinoviral assay, XTT); assay type: cell-based; conditions: human; mock-infected HI-HeLa cells; two days; XTT; read-out: CC50
[4] = biological target: T3, Recombinant Rhinovirus 3C protease (RVP) serotype 2 (Human rhinovirus 2, UniProt P04936); test: Inhibition of Rhinovirus Protease (fluorescence resonance energy transfer assay), serotype 2; assay type: biochemical, human rhinovirus (HRV); conditions: for kobs/I: progress curves in enzyme start experiments
T3 construct: Recombinant Rhinovirus 3C proteases from serotypes 14, 16, 2 or 89; made in house
T3 sequence (P04936 1508-1690): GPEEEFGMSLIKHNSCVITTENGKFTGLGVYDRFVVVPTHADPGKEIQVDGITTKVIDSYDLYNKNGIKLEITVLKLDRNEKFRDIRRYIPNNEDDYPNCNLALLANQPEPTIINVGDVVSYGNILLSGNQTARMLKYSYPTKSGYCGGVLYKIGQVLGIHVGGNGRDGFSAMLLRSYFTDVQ
Experimental: as §1, §2

HI-HeLa cells = test: Cytotoxicity in mock-infected HI-HeLa cells (antirhinoviral assay, XTT); assay type: cell-based
[5] = Rhinovirus B, HRV14, 48 h, HI-HeLa cells infected with HRV-14, m.o.i. 0.13, two days, XTT, read-out: EC50
[6] = HI-HeLa cells infected with HRV-14, m.o.i. 0.13, two days, XTT, read-out: EC50

With `COC(=O)/C=C\[C@H](CCC(N)=O)NC(=O)[C@H](Cc1ccccc1)NC(=O)[C@H](CC(C)C)NC(=O)OCc1ccccc1` [Compound 7, Methyl-3-(CBZ-L-Leu-L-Phe-L-Gln)-Z-Propenoate] the Ki [1] was 9.5 µM, the kinact/KI [1] was 2400 M⁻¹ s⁻¹ and the inhibition at 1 µM ([2]; RVP serotype 16, 1 μM compound, 10 minute preincubation with 50 nM RVP, read-out: INHIB (percent inhibition)) was 42%. The EC50 (HRV-14; [5]) was 3.2 µM and the CC50 at 2 days [3] was greater than 320 µM.
With `CCOC(=O)/C=C/[C@H](CCC(N)=O)NC(=O)[C@H](Cc1ccc(F)cc1)NC(=O)[C@H](CC(C)C)NC(=O)OCc1ccccc1` [Compound 35, Ethyl-3-[CBZ-L-Leu-L-(4-F-Phe)-L-Gln]-E-Propenoate] the Ki ([1]; RVP serotype-14, 10 minute preincubation, substrate start, read-out: INHIB (Ki)) was 16.5 µM, the kobs/I ([1]; RVP serotype-14) was 46,388 M-1 sec-1 and the kobs/I ([2]; RVP serotype 16) was 9,177 M-1 sec-1. For the same compound, the kobs/I [4] was 2,357 M-1 sec-1, the EC50 (HRV-14; [6]) was 1.8 µM and the CC50 (HI-HeLa cells; mock-infected HI-HeLa cells, two days, XTT, read-out: CC50) was greater than 320 µM.
With `CC(C)C[C@H](NC(=O)OCc1ccccc1)C(=O)N[C@@H](Cc1ccccc1)C(=O)N[C@H](/C=C/C(=O)N1CCCC1=O)CCC(N)=O` [Compound 61] the kobs/I ([1]; RVP serotype-14) was 125,940 M-1 sec-1, the kobs/I ([2]; RVP serotype 16) was 25,000 M-1 sec-1 and the kobs/I [4] was 14,000 M-1 sec-1. It also gave an EC50 (HRV-14; [6]) of 0.89 µM and a CC50 (HI-HeLa cells) of 56 µM.
With `CC(C)C[C@H](NC(=O)OCc1ccccc1)C(=O)N[C@@H](Cc1ccccc1)C(=O)N[C@H](/C=C/C(=O)N1CCOC1=O)CCC(N)=O` [Compound 62] the kobs/I ([1]; RVP serotype-14) was 600,000 M-1 sec-1, the kobs/I ([2]; RVP serotype 16) was 300,000 M-1 sec-1 and the kobs/I [4] was 600,000 M-1 sec-1. The EC50 (HRV-14; [6]) was 1.6 µM and the CC50 (HI-HeLa cells) was greater than 100 µM.
Work on `CC(C)C[C@H](NC(=O)OCc1ccccc1)C(=O)N[C@@H](Cc1ccccc1)C(=O)N[C@H](/C=C/C(=O)n1ccc2ccccc21)CCC(N)=O` [Compound 89] yielded a Ki [1] of 5 µM, a kinact/KI [1] of 53400 M⁻¹ s⁻¹ and a kinact/KI ([2]; RVP serotype 16) of 2800 M⁻¹ s⁻¹. The EC50 (HRV-14; [5]) was 1.8 µM and the CC50 at 2 days [3] was 29 µM.
In the case of `CC(C)CC(NC(=O)OCc1ccccc1)C(=O)NC(Cc1ccccc1)C(=O)NC(C=C1CCOC1=O)CCC(N)=O` (stereo not shown) [Compound 90], the kobs/I ([1]; RVP serotype-14) is reported as 10,918 M-1 sec-1, the kobs/I ([2]; RVP serotype 16) is reported as 3,600 M-1 sec-1 and the EC50 (HRV-14; [6]) is reported as 5.2 µM. It also gave a CC50 (HI-HeLa cells) greater than 320 µM.
For `CCOC(=O)/C=C/[C@H](CCC(N)=O)NC(=O)[C@H](Cc1ccccc1)NC(=O)[C@H](CC(C)C)NC(=O)c1ccc(Oc2ccccc2)cc1` [Compound 104], the Ki [1] was 2.5 µM, the kinact/KI [1] was 8000 M⁻¹ s⁻¹ and the Ki [2] was 1.5 µM. The EC50 (HRV-14; [5]) was 5.2 µM and the CC50 at 2 days [3] was greater than 320 µM.
Work on `CCOC(=O)/C=C/[C@H](CCC(N)=O)NC(=O)[C@H](Cc1ccc(CO)cc1)NC(=O)[C@H](CC(C)C)NC(=O)OCc1ccccc1` [Compound 114] yielded a Ki [1] of no less than 1 µM, a kinact/KI [1] of 82300 M⁻¹ s⁻¹ and a kinact/KI ([4]; pH 7.6, progress curves in enzyme start experiments, read-out: kobs/I) of 1970 M⁻¹ s⁻¹. It also gave an EC50 (HRV-14; [5]) of 0.55 µM and a CC50 at 2 days [3] greater than 320 µM.
For `CC(C)CC(NC(=O)OCc1ccccc1)C(=O)NC(Cc1ccccc1)C(=O)NC(C=Cc1ccccc1C#N)CCC(N)=O` (stereo not shown) [Compound 145], the Ki [1] was 10 to 20 µM, the EC50 (HRV-14; [5]) was greater than 320 µM and the CC50 at 2 days [3] was greater than 320 µM.
`CCOC(=O)/C=C/[C@H](CCC(N)=O)NC(=O)[C@H](Cc1ccccc1)NC(=O)[C@@H](NC(=O)OCc1ccccc1)C(C)(C)C` [Compound 151] showed a Ki [1] greater than 4.8 µM, a kinact/KI [1] of 39800 M⁻¹ s⁻¹ and an EC50 (HRV-14; [5]) of 0.32 µM. For the same compound, the CC50 at 2 days [3] was 178 µM.
For `CCOC(=O)/C=C/[C@H](CCC(N)=O)NC(=O)[C@H](Cc1ccccc1)NC(=O)[C@@H](NC(=O)OCc1ccccc1)C(C)O` (stereo partly shown) [Compound 152], the Ki [1] was 3.2 µM, the kinact/KI [1] was 38900 M⁻¹ s⁻¹ and the EC50 (HRV-14; [5]) was 1.78 µM. The CC50 at 2 days [3] was greater than 320 µM.
In the case of `CC(C)C[C@H](NC(=O)OCc1ccccc1)C(=O)N[C@@H](Cc1ccccc1)C(=O)N[C@H](/C=C/C(=O)OCC(C)(C)C)CCC(N)=O` [Compound 163], the Ki [1] is reported as 3.6 µM, the kinact/KI [1] is reported as 9800 M⁻¹ s⁻¹ and the EC50 (HRV-14; [5]) is reported as 0.5 µM. The CC50 at 2 days [3] was greater than 100 µM.
Compound `CCOC(=O)/C=C/[C@H](CCC(N)=O)NC(=O)[C@H](Cc1ccccc1)NC(=O)[C@@H](NC(=O)SCC)C(C)C` [Compound 180] has a Ki [1] of 0.42 µM, a kinact/KI [1] of 300000 M⁻¹ s⁻¹ and an EC50 (HRV-14; [5]) of 0.056 µM. It also gave a CC50 at 2 days [3] greater than 100 µM.
`CCOC(=O)/C=C/[C@H](CCC(N)=O)NC(=O)[C@H](Cc1ccc(C)cc1)NC(=O)[C@@H](NC(=O)SC1CCCC1)C(C)C` [Compound 183] gave a Ki [1] of 0.55 µM, a kinact/KI [1] of 500000 M⁻¹ s⁻¹ and a kinact/KI ([2]; RVP serotype 16) of 60000 M⁻¹ s⁻¹. For the same compound, the EC50 (HRV-14; Rhinovirus B, HRV14, 48 h) was 0.03 µM and the CC50 at 2 days [3] was greater than 100 µM.
